# Literature values as cited in patent US5650415A, “Quinoline compounds” (Sugen, Inc., priority 1995, dated 1997).
# Experiments:
# [1] = test system: IGF-1R protein tyrosine kinase; conditions: Sepp-Lorenzino et al., Abstract, 1994; cited from earlier work
# [2] = test system: human breast cancer cells; conditions: Sepp-Lorenzino et al., Abstract, 1994; cited from earlier work
smiles,measurement,setting,value
COC1C=CC=C(C)C(=O)NC2=CC(=O)C=C(C2=O)C(OC)C(C)CC(OC)C(OC)C(C)C=C(C)C1OC(N)=O (centres unmarked) [Herbimycin A],inhibition of IGF-1R protein tyrosine kinase,[1],inhibit the IGF-1R protein tyrosine kinase
same,inhibition of cellular proliferation,[2],inhibit the IGF-1R protein tyrosine kinase and cellular proliferation in human breast cancer cells
